Laboratory results published in ChEMBL document CHEMBL1201862, “PubChem BioAssay data set” (2004).
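Cells were grown in 96-well plates and exposed to each compound for 48 hours at five concentrations; endpoints were interpolated linearly between bracketing concentrations, or set to the highest concentration if not reached. Abbreviation: GI50, concentration required for 50% inhibition of growth.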 Activity calls are given as the source filed them. Rule as the data show it: active = GI50 up to about 1.1 µM and inactive = higher.

What was measured:
Assay in all cases: inhibition of tumour cell growth, NCI panel, 48 h
[1] = system: LOX IMVI
[2] = system: KM12
[3] = system: 786-0
[4] = system: HCT-15
[5] = system: T47D
[6] = system: CCRF-CEM
[7] = system: SK-MEL-5
[8] = system: NCI-H23
[9] = system: SF-268
[10] = system: CAKI-1
[11] = system: OVCAR-8
[12] = system: UACC-62
[13] = system: SF-295
[14] = system: K562
[15] = system: MDA-MB-435
[16] = system: NCI/ADR-RES
[17] = system: SN12C
[18] = system: Hs-578T
[19] = system: BT-549

## O=C(/C=C/c1ccc2ccccc2c1)NCc1ccc(C(=O)NCCc2ccccc2)cc1
[1]
  GI50: > 100 µM (inactive)
[2]
  GI50: > 100 µM (inactive)
[3]
  GI50: 64.3 µM (inactive)
[4]
  GI50: > 100 µM
[5]
  GI50: 65.5 µM (inactive)
[6]
  GI50: > 100 µM (inactive)
[7]
  GI50: > 100 µM (inactive)
[8]
  GI50: > 100 µM (inactive)
[9]
  GI50: > 100 µM (inactive)
[10]
  GI50: > 100 µM (inactive)
[11]
  GI50: > 100 µM (inactive)
[12]
  GI50: > 100 µM (inactive)
[13]
  GI50: > 100 µM (inactive)
[14]
  GI50: 52 µM (inactive)
[15]
  GI50: > 100 µM (inactive)
[16]
  GI50: > 100 µM (inactive)
[17]
  GI50: > 100 µM (inactive)

## NC(=O)c1nnsc1NC=O
[1]
  GI50: > 100 µM (inactive)
[2]
  GI50: > 100 µM (inactive)
[3]
  GI50: > 100 µM (inactive)
[4]
  GI50: > 100 µM
[5]
  GI50: > 100 µM (inactive)
[6]
  GI50: > 100 µM (inactive)
[7]
  GI50: > 100 µM (inactive)
[8]
  GI50: > 100 µM (inactive)
[9]
  GI50: > 100 µM (inactive)
[10]
  GI50: > 100 µM (inactive)
[18]
  GI50: > 100 µM (inactive)
[11]
  GI50: > 100 µM (inactive)
[12]
  GI50: > 100 µM (inactive)
[13]
  GI50: > 100 µM (inactive)
[14]
  GI50: > 100 µM (inactive)
[15]
  GI50: > 100 µM (inactive)
[16]
  GI50: > 100 µM (inactive)
[17]
  GI50: > 100 µM (inactive)

## CCOC(=O)/C(=C\NC(=S)Nc1ccc(OCC)cc1)C(=O)c1ccccc1
[1]
  GI50: > 100 µM (inactive)
[2]
  GI50: > 100 µM (inactive)
[3]
  GI50: > 100 µM (inactive)
[4]
  GI50: > 100 µM
[5]
  GI50: 24 µM (inactive)
[6]
  GI50: > 100 µM (inactive)
[7]
  GI50: > 100 µM (inactive)
[8]
  GI50: > 100 µM (inactive)
[9]
  GI50: > 100 µM (inactive)
[10]
  GI50: > 100 µM (inactive)
[18]
  GI50: 57.9 µM (inactive)
[11]
  GI50: > 100 µM (inactive)
[12]
  GI50: > 100 µM (inactive)
[13]
  GI50: > 100 µM (inactive)
[14]
  GI50: > 100 µM (inactive)
[15]
  GI50: > 100 µM (inactive)
[16]
  GI50: > 100 µM (inactive)
[17]
  GI50: > 100 µM (inactive)

## CN(C)c1ccc(/C=C2\CCCCCC2=O)cc1
[2]
  GI50: > 100 µM (inactive)
[3]
  GI50: 87.1 µM (inactive)
[5]
  GI50: 38.5 µM (inactive)
[6]
  GI50: > 100 µM (inactive)
[7]
  GI50: 56 µM (inactive)
[9]
  GI50: > 100 µM (inactive)
[10]
  GI50: > 100 µM (inactive)
[11]
  GI50: > 100 µM (inactive)
[12]
  GI50: 90.4 µM (inactive)
[13]
  GI50: > 100 µM (inactive)
[14]
  GI50: > 100 µM (inactive)
[15]
  GI50: > 100 µM (inactive)
[16]
  GI50: > 100 µM (inactive)
[17]
  GI50: > 100 µM (inactive)
[19]
  GI50: 81.5 µM (inactive)
